# How the values were obtained:
# [1] = target: T1, Proto-oncogene tyrosine-protein kinase Src [251-533,T338C] (Gallus gallus, UniProt P00523, T338C); experiment: In vitro Kinase Assay; conditions: pH 8
# T1 construct: 251-533
# Procedure: (§1) In vitro kinase assays for c-Src variants were performed in 50 mM Tris (pH 8.0), 10 mM MgCl2 and 1 mg/mL BSA. When obtaining kinetic parameters (kcat, Km) kinase and peptide substrate (IYGEFKKK) (SEQ ID NO:51) concentrations were 2 nM and 500 μM, respectively, while ATP concentrations ranged from 2000-0.655 μM. Addition of nonradioactive ATP supplemented with 32P ATP (3,000 Ci/mmol, NEN) was used to initiate kinase reactions. Time points were selected such that product formation never exceeded 10%. Reactions were quenched by spotting 3 μL quantities onto phosphocellulose sheets (P81, Whatman). Afterwards, the sheets were washed 3×5 minutes in 0.5% phosphoric acid and dried. Radioactivity was measured by phosphorimaging and recorded on a Typhoon fluorescence imager (Molecular Dynamics).
# [2] = target: T2, Proto-oncogene tyrosine-protein kinase Src [251-533] (Gallus gallus, UniProt P00523); experiment: In vitro Kinase Assay; conditions: pH 8
# T2 construct: 251-533
# Procedure: as §1
Structure (SMILES),IC50 [1] [nM],IC50 [2] [nM]
"CC(=O)c1cccc(Cc2nn(C(C)C)c3ncnc(N)c23)c1 [US9353116, 14]",4520,> 5000
"C=CS(=O)(=O)Nc1ccc(Nc2ncnc3cc(OC)c(OC)cc23)cc1 [US9353116, 20]",560,2170

# — BindingDB's records for patent US9353116 (University of California, 2016)
